In ChEMBL document CHEMBL1201862, “PubChem BioAssay data set” (2004):
Values joined by “and” are separate entries in the source; they are usually repeats but may differ in a detail not shown here. Equal entries are not always repeated.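 Test compounds were applied to cells in 96-well plates for 48 hours at 5 doses. The concentration for 50% growth inhibition is given as GI50.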 Active and inactive are the calls of the source. No stated cut-off is given here; in the data, active = GI50 up to about 1.1 µM and inactive = higher.

Legend:
Assay in all cases: growth of human tumour cells (NCI), 48 h
SN12C = test system: SN12C
HOP-62 = test system: HOP-62
TK-10 = test system: TK-10
NCI-H226 = test system: NCI-H226
ACHN = test system: ACHN
A549 = test system: A549
NCI-H23 = test system: NCI-H23
A498 = test system: A498
SF-539 = test system: SF-539
OVCAR-4 = test system: OVCAR-4
UO-31 = test system: UO-31
CCRF-CEM = test system: CCRF-CEM
M14 = test system: M14
Malme-3M = test system: Malme-3M
HL-60 = test system: HL-60
EKVX = test system: EKVX
SK-MEL-5 = test system: SK-MEL-5
U-251 = test system: U-251
CAKI-1 = test system: CAKI-1

Row | SMILES | GI50 (SN12C) | GI50 (HOP-62) | GI50 (TK-10) | GI50 (NCI-H226) | GI50 (ACHN) | GI50 (A549) | GI50 (NCI-H23) | GI50 (A498) | GI50 (SF-539) | GI50 (OVCAR-4) | GI50 (UO-31) | GI50 (CCRF-CEM) | GI50 (M14) | GI50 (Malme-3M) | GI50 (HL-60) | GI50 (EKVX) | GI50 (SK-MEL-5) | GI50 (U-251) | GI50 (CAKI-1)
1 | CC(C)(C)C1=CC(=NNC(=S)NCc2ccccc2)C=C(C(C)(C)C)C1=O | 92.5 µM (inactive) | > 100 µM (inactive) | > 100 µM (inactive) | 78.5 µM (inactive) | 67.1 µM (inactive) | 42.7 µM (inactive) | 64 µM (inactive) | 77.4 µM (inactive) | > 100 µM (inactive) | 90.2 µM (inactive) | 52 µM (inactive) | 52.1 µM (inactive) | > 100 µM (inactive) | > 100 µM (inactive) | > 100 µM (inactive) | 89.3 µM (inactive) | 37.6 µM (inactive) | 94.2 µM (inactive) | –
2 | Sc1ncnc2c1ncn2C1CCCO1 (configuration not stated) | > 100 µM (inactive) | 64.4 µM (inactive) | 89.5 µM (inactive) | – | > 100 µM (inactive) | > 100 µM (inactive) | > 100 µM (inactive) | > 100 µM (inactive) | > 100 µM (inactive) | 51.1 µM (inactive) | > 100 µM (inactive) | > 100 µM (inactive) | 43.3 µM (inactive) | > 100 µM (inactive) | > 100 µM (inactive) | – | > 100 µM (inactive) | > 100 µM (inactive) | > 100 µM (inactive)
3 | CC(N)C(=O)OCN1C(=O)C2C3C=CC(C2C1=O)C1C2C(=O)N(COC(=O)C(C)N)C(=O)C2C31 (configuration not stated) | 25.6 µM (inactive) | > 100 µM (inactive) | 71.6 µM (inactive) | 39.8 µM (inactive) | 27.7 µM (inactive) | 32.9 µM (inactive) | 22.1 µM (inactive) | – | 22.9 µM (inactive) | 20.8 µM (inactive) | 56.4 µM (inactive) | 23.1 µM (inactive) | 20.9 µM (inactive) | – | 29.8 µM (inactive) | > 100 µM (inactive) | 18.1 µM (inactive) | 24.5 µM (inactive) | 72.6 µM (inactive)
4 | CCCCCCCCCCCCCCCCCCOCC1(COP(=O)([O-])OCC[N+](C)(C)C)CCCO1 (configuration not stated) | 2.2 µM (inactive) | 2.99 µM (inactive) | 1.6 µM (inactive) | 5.01 µM (inactive) | 6.37 µM (inactive) | 7.6 µM (inactive) | 16.8 µM (inactive) | 3.46 µM (inactive) | 15.8 µM (inactive) | 2.83 µM (inactive) | 10.2 µM (inactive) | 2.89 µM (inactive) | 3.14 µM (inactive) | 13.3 µM (inactive) | 2.18 µM (inactive) | – | 14.4 µM (inactive) | 2.33 µM (inactive) | –
5 | COC(=O)/N=C(\NC(=O)OC)Nc1ccc(Oc2ccccc2)cc1NC=O | 1.58 µM (inactive) | 0.912 µM (active) | 9.57 µM (inactive) | 0.977 µM (active) | 0.881 µM (active) | 0.597 µM (active) | 0.824 µM (active) | 0.294 µM (active) | 0.433 µM (active) | 0.891 µM (active) | 0.871 µM (active) | 0.692 µM (active) | 0.401 µM (active) | 0.579 µM (active) | 0.206 µM (active) | 89.5 µM (inactive) | 0.341 µM (active) | 0.333 µM (active) | –
6 | COc1ccc2cc1Oc1ccc(cc1)C[C@H]1c3cc(c(OC)cc3CCN1C)Oc1c(OC)c(OC)cc3c1[C@H](C2)N(C)CC3 [FANCHININ] | – | 5.94 µM (inactive) | 22.9 µM (inactive) and 8.41 µM (inactive) | – | 7.93 µM (inactive) and 17.1 µM (inactive) | – | 77.4 µM (inactive) and 8.43 µM (inactive) | 7.33 µM (inactive) and 60.5 µM (inactive) | 20.1 µM (inactive) and 4.78 µM (inactive) | 2.42 µM (inactive) | – | 33 µM (inactive) and 3.54 µM (inactive) | 26.2 µM (inactive) and 260 nM (active) | – | 7.8 µM (inactive) and 99.5 µM (inactive) | – | 6.1 µM (inactive) and 57.3 µM (inactive) | 35.7 µM (inactive) and 7.66 µM (inactive) | –
7 | O=C1NC2C(O)CCCCC2C12CCCCC2 (configuration not stated) | > 100 µM (inactive) | > 100 µM (inactive) | – | – | > 100 µM (inactive) | > 100 µM (inactive) | > 100 µM (inactive) | > 100 µM (inactive) | > 100 µM (inactive) | > 100 µM (inactive) | > 100 µM (inactive) | – | > 100 µM (inactive) | > 100 µM (inactive) | > 100 µM (inactive) | > 100 µM (inactive) | > 100 µM (inactive) | > 100 µM (inactive) | > 100 µM (inactive)
8 | CCOC(=O)C1=C(NC(C)(C)C)OCC1=O | > 100 µM (inactive) | > 100 µM (inactive) | > 100 µM (inactive) | > 100 µM (inactive) | > 100 µM (inactive) | > 100 µM (inactive) | 92.7 µM (inactive) | – | > 100 µM (inactive) | > 100 µM (inactive) | > 100 µM (inactive) | – | > 100 µM (inactive) | > 100 µM (inactive) | > 100 µM (inactive) | – | – | > 100 µM (inactive) | > 100 µM (inactive)
9 | COc1ccc(Br)c(N/N=C2\CCCNC2=O)c1 | > 100 µM (inactive) | > 100 µM (inactive) | 57 µM (inactive) | > 100 µM (inactive) | 40.4 µM (inactive) | > 100 µM (inactive) | > 100 µM (inactive) | – | 95.5 µM (inactive) | > 100 µM (inactive) | 32.1 µM (inactive) | > 100 µM (inactive) | > 100 µM (inactive) | > 100 µM (inactive) | 68.5 µM (inactive) | 22.6 µM (inactive) | 96.6 µM (inactive) | 86.3 µM (inactive) | 36.3 µM (inactive)
10 | C=C1C2CCCC1C1(S(C)(=O)=O)CCCCC21O (configuration not stated) | > 100 µM (inactive) | – | > 100 µM (inactive) | > 100 µM (inactive) | > 100 µM (inactive) | > 100 µM (inactive) | > 100 µM (inactive) | – | > 100 µM (inactive) | > 100 µM (inactive) | > 100 µM (inactive) | – | > 100 µM (inactive) | > 100 µM (inactive) | – | > 100 µM (inactive) | > 100 µM (inactive) | > 100 µM (inactive) | > 100 µM (inactive)
11 | Cc1cc2c(=O)cc(-c3ccc(C(=O)O)cc3)oc2c(C(=O)O)c1C | > 100 µM (inactive) | > 100 µM (inactive) | > 100 µM (inactive) | > 100 µM (inactive) | > 100 µM (inactive) | > 100 µM (inactive) | > 100 µM (inactive) | – | > 100 µM (inactive) | > 100 µM (inactive) | > 100 µM (inactive) | > 100 µM (inactive) | > 100 µM (inactive) | > 100 µM (inactive) | > 100 µM (inactive) | > 100 µM (inactive) | > 100 µM (inactive) | > 100 µM (inactive) | > 100 µM (inactive)
12 | CC(C)(Oc1ccc(C(=O)c2ccc(Cl)cc2)cc1Cl)C(=O)N1CCN(c2ccccc2)CC1 | – | > 100 µM (inactive) | > 100 µM (inactive) | – | – | 58.5 µM (inactive) | 37.2 µM (inactive) | > 100 µM (inactive) | > 100 µM (inactive) | – | 46.9 µM (inactive) | > 100 µM (inactive) | > 100 µM (inactive) | > 100 µM (inactive) | 60.8 µM (inactive) | > 100 µM (inactive) | 72.8 µM (inactive) | > 100 µM (inactive) | –
13 | COc1cc2c(c(OC)c1OC)-c1ccc(SC)c(=O)cc1[C@@H](NC(=O)c1ccc(Cl)cc1)CC2 | < 0.01 µM (active) | < 0.01 µM (active) | 2.36 µM (inactive) | < 0.01 µM (active) | < 0.01 µM (active) | < 0.01 µM (active) | < 0.01 µM (active) | < 0.01 µM (active) | < 0.01 µM (active) | < 0.01 µM (active) | 0.0196 µM (active) | < 0.01 µM (active) | < 0.01 µM (active) | < 0.01 µM (active) | < 0.01 µM (active) | – | < 0.01 µM (active) | < 0.01 µM (active) | –
14 | CCC1OCCN1C(C)C (configuration not stated) | > 100 µM (inactive) | – | 42 µM (inactive) | – | > 100 µM (inactive) | > 100 µM (inactive) | 32.9 µM (inactive) | > 100 µM (inactive) | > 100 µM (inactive) | – | 96.6 µM (inactive) | > 100 µM (inactive) | – | 65.2 µM (inactive) | > 100 µM (inactive) | 26.2 µM (inactive) | 70.8 µM (inactive) | > 100 µM (inactive) | –
15 | CCc1nc(N)nc(N)c1-c1ccc(Cl)c(N=[N+]=[N-])c1 | 9.38 µM (inactive) | 9.53 µM (inactive) | – | 28.4 µM (inactive) | – | – | 4.23 µM (inactive) | 16.5 µM (inactive) | 4.65 µM (inactive) | 22.4 µM (inactive) | – | – | – | – | – | 5.21 µM (inactive) | 3.74 µM (inactive) | 5.38 µM (inactive) | –
16 | COC(=O)C(=Cc1cc(OC)ccc1OC)C(=O)OC | 24.9 µM (inactive) | 27.5 µM (inactive) | 36.3 µM (inactive) | 53.6 µM (inactive) | 17.3 µM (inactive) | 31 µM (inactive) | – | – | 24.7 µM (inactive) | 20.3 µM (inactive) | 23 µM (inactive) | 20 µM (inactive) | 15.3 µM (inactive) | 26.9 µM (inactive) | 21.8 µM (inactive) | 33.7 µM (inactive) | 19.1 µM (inactive) | 19.8 µM (inactive) | 18.9 µM (inactive)
17 | Cc1ccc(C(=O)NC2CCCCC2)cc1/N=N/N(C)C | > 100 µM (inactive) | > 100 µM (inactive) | > 100 µM (inactive) | – | > 100 µM (inactive) | > 100 µM (inactive) | > 100 µM (inactive) | – | > 100 µM (inactive) | > 100 µM (inactive) | > 100 µM (inactive) | – | > 100 µM (inactive) | – | – | > 100 µM (inactive) | > 100 µM (inactive) | > 100 µM (inactive) | > 100 µM (inactive)
